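How tested: cells in 96-well plates exposed to compound for 48 hours at five concentrations. Here, GI50 denotes the concentration required for 50% inhibition of growth. At the TGI there is no net growth.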
These molecules were tested on MDA-MB-468 breast (assay: NCI anticancer screen, dose series, 48 h).

| SMILES | GI50 [nM] | TGI [nM] |
| --- | --- | --- |
| NC(=O)c1cc(-c2ccc(F)cc2)cc(-c2ccncc2)c1N | 8170 | > 25000 |
| Cc1cc(Cl)ccc1NC(=O)c1cc2ccccc2cc1O | 1780 | 7420 |
| CN(CC(=O)N(Cc1ccc(C2CCCCC2)cc1)c1ccc(C(=O)O)c(O)c1)S(=O)(=O)c1c(F)c(F)c(F)c(F)c1F | 1760 | 3760 |
| COc1ccc(Cn2cc3c(c2-c2ccc(OC)cc2)CCc2cnoc2-3)cc1 | 254 | 809 |
| N#CSCC1CC(O)(c2ccccc2)CC(c2ccc(F)cc2)O1 (configuration not stated) | 2250 | 7550 |
| CC(=O)O[C@]1(C(C)=O)CC[C@H]2[C@@H]3C=C(C)C4=CC(=O)CC[C@]4(C)[C@H]3CC[C@@]21C | 77700 | > 100000 |
| O=C1/C(=C/c2ccc(Cl)cc2)N=C(c2ccccc2)N1CCc1cccs1 | 13700 | 98200 |
| COc1ccc(-c2nc3ccccn3c2/C=C/C(=O)c2cc(OC)c(OC)c(OC)c2)cc1 | 11900 | 65500 |
| NC(=O)c1ccc2nc(-c3ccc(Oc4ccc(Cl)cc4)cc3)[nH]c2c1 | 10500 | 29300 |
| COc1cc(Nc2ccnc(NCCCNc3ccnc4cc(Cl)ccc34)n2)cc(OC)c1 | 1490 | 3180 |
| CN1c2ccccc2C(C)(C)C12C=Cc1cc(O)ccc1O2 (configuration not stated) | 3460 | 16700 |
| O=[N+]([O-])c1c(Br)sc(Br)c1[N+](=O)[O-] | 1270 | 2910 |
| Fc1ccc(Nc2nc3nonc3nc2Nc2ccc(F)cc2)cc1 | 281 | 1460 |
| Cc1ccc2ccc3ccc(C)nc3c2n1.Cc1ccc2ccc3ccc(C)nc3c2n1.Oc1c(Cl)cc(Cl)c2ccc(CN3CCCCC3)nc12.[Ru] | 248 | 875 |
| O=C(Nc1ccc2ncnc(Nc3ccc(Oc4cccc(F)c4)c(Cl)c3)c2c1)c1ccc(CNCCO)cc1 | 561 | 2020 |
| Cc1cccc2c(=O)c3c(sc12)c(NCCNCCO)nc1ccccc13 | 1090 | 2500 |
| COc1cc(/C=C/C(=O)c2ccc(NC(=O)CN3CCN(c4cc5c(cc4F)c(=O)c(C(=O)O)cn5C4CC4)CC3)cc2)cc(OC)c1OC | 358 |  |
| C[C@@H](CO)[C@@H]1CCC=C2CC[C@]3(C)[C@H](CC[C@@H]4[C@@]5(C)CCCNC(C)(C)[C@@H]5CC[C@]43C)[C@H]21 | 1800 | 3400 |
| CCC1CCc2nc3sc(C(=O)Nc4cccc(F)c4)c(N)c3cc2C1 (configuration not stated) | 471 | > 100000 |

| SMILES | GI50 [nM] | TGI [nM] |
| --- | --- | --- |
| Oc1[nH]c2ccc(Cl)cc2c1/C=c1/ccc2c(c1)N=C(c1ccc(F)cc1)N=2 | 2020 | 3570 |
| Cc1cc(N(CCNc2ccnc3cc(Cl)ccc23)Cc2ccco2)nc(Cl)n1 | 1500 | 3070 |
| CCCCCCCCCCCCCC[n+]1ccc2c(C)c3c(c(C)c2c1)c1cc(O)ccc1n3CC | 176 | 654 |
| COc1cc2c(cc1Nc1nc(Nc3ccsc3C(N)=O)c3cc[nH]c3n1)N(C(=O)CN(C)C)CCC2(C)C | 471 | 2600 |
| CC1(C)[C@@H](O[C@@H]2OC[C@@H](O[C@@H]3O[C@H](CO)[C@@H](O)[C@H](O)[C@H]3O[C@@H]3OC[C@@H](O)[C@H](O)[C@H]3O)[C@H](O)[C@H]2O[C@@H]2O[C@H](CO)[C@@H](O)[C@H](O)[C@H]2O)CC[C@]2(C)[C@H]3CC[C@]45OC[C@@]6(CC[C@](C)(C=O)C[C@H]64)[C@H](O)C[C@@]5(C)[C@]3(C)CC[C@@H]12 | 941 | 1960 |
| CN(C)c1ccc(Nc2cc(-c3cccc(OC(F)(F)F)c3)nc3ccc(N4CCCC4)cc23)cc1 | 2050 | 4380 |
| COc1ccc(OC)c(/C=C(/C)[N+](=O)[O-])c1 | 1270 | 2680 |
| CC(=Nc1ccccc1)C1=C(O)C(Cc2ccccc2)NC1=O (configuration not stated) | 17.3 | 50.2 |
| O=C(/C=C/c1cc([N+](=O)[O-])ccc1Cl)c1ccccc1 | 8460 | 22100 |
| CC[C@@H](C(=O)[C@@H](C)[C@@H](O)[C@H](C)[C@@H]1O[C@@H]([C@@H](CC)C(=O)N(CC)CC)CC[C@@H]1C)C1O[C@]2(C=CC(=O)[C@]3(CC[C@@](C)([C@H]4CC[C@](O)(CC)[C@H](C)O4)O3)O2)[C@H](C)C[C@@H]1C (some centres not stated) | 943 | 3190 |
| Nc1nc(-c2ccc(F)cc2)c(-c2ccc3ncccc3n2)s1 |  | > 25000 |
| O=C(NCc1ccc(Cn2c(=O)sn(-c3ccccc3)c2=O)cc1)OCc1ccc2c(Br)cc(Br)c(O)c2n1 | 500 | 2010 |
| CN1CCN(c2ccc3nc(-c4ccc5nc(-c6ccc(OCCC(C)(C)C)cc6)[nH]c5c4)[nH]c3c2)CC1 | 1910 | 4130 |
| Nc1nc(-c2ccccc2)nc(N)c1N=O | 1750 | 5700 |
| CCCCCCCCCCCC1CCCC(C)N1 (configuration not stated) | 15500 | 31000 |
| CCNC(=O)c1cc2c(-c3cc(C(C)(C)O)ccc3Oc3c(C)cc(F)cc3C)cn(C)c(=O)c2[nH]1 | 1170 | 7450 |
| COc1ccc(Nc2c3ccccc3nc3ccccc23)cc1 | 547 | 4530 |
| Cc1c(COc2cc(OCc3cccc(C#N)c3)c(CN3C[C@H](O)C[C@@H]3C(=O)O)cc2Cl)cccc1-c1ccc2c(c1)OCCO2 | 6720 | 20500 |
